Experimental data: US20050255595A1, “Genetically modified non-human mammal cells, procedure for their production and use in toxicity tests” (priority 2002, published 2005)
Read-outs that look alike come from different tables or passages of the source.

Legend:
MMH/GH cells, Clone 2 = conditions: for hGH secreted, 5 h: 5 h treatment; for hGH secreted, 5 + 24 h: 5 h treatment + 24 h recovery
MMH/GH cells, Clone 9 = conditions: for hGH secreted, 5 h: 5 h treatment; for hGH secreted, 5 + 24 h: 5 h treatment + 24 h recovery
MMH/GH cells, Clone 11 = conditions: Clone 11; for hGH secreted, 5 h: 5 h treatment; for hGH secreted, 5 + 24 h: 5 h treatment + 24 h recovery
[1] = test system: primary hepatocytes (PHGH); assay: cellular survival of PHGH, Trypan Blue exclusion; assay type: cell-based, mice; conditions: highest concentrations of the toxicant; Trypan Blue; FIG. 1 graph B
Source text: This different behaviour is explained by the greater sensitivity to the toxicant of the PHGH with respect to the MMH/GH5 as shown by analysis of the cellular vitality performed with the Trypan Blue method (FIG. 1, graph B). […] Therefore the greater resistance of the cells MMH/GH/5 to the toxicants constitutes another evident advantage as it permits the exclusion of false negatives in which the non-release of hGH, due to cellular death, is interpreted as non-toxicity of the compound. When the supernatant is collected after 5 hours of treatment followed by 24 hours of culture with normal medium (FIG. 1 graph C) the PHGHs respond, at the lowest concentrations of the two toxicants, with high levels of secretion of hGH and, at the highest concentrations, with low levels of secretion of hGH (lower cellular survival, graph D).
(§1) In table 3 the cellular survival percentage was determined with the Trypan Blue exclusion method. […]
(§2) For treatment, the two types of cells were treated with different concentrations of the compounds for 1 or 5 hours and then with normal medium for a further 24 hours. The effects of the treatment were assessed as described previously for the inorganic toxicants.

MMH/GH cells, Clone 4 = conditions: Clone 4; for hGH secreted, 5 h: 5 h treatment; for hGH secreted, 5 + 24 h: 5 h treatment + 24 h recovery
MMH/GH5 cells (Clone 5) = conditions: for hGH secreted, 5 h / hGH secreted, 5 + 24 h: Clone 5; for hGH secreted, 5 h: 5 h treatment; for hGH secreted, 5 + 24 h: 5 h treatment + 24 h recovery
MMH/GH cells, Clone 10 = conditions: for hGH secreted, 5 h: 5 h treatment; for hGH secreted, 5 + 24 h: 5 h treatment + 24 h recovery
[2] = test system: single transgenic HPS70/hGH primary hepatocytes (PHGH); assay: toxicity test, hGH secretion by primary transgenic hepatocytes (PHGH); assay type: cell-based, mice; conditions: PHGH; 10^-5, 5x10^-5, 10^-4 M; 5 h; FIG. 1 graph A
Source text: On the basis of the results illustrated, for the further analyses, clone no. […] The response to the toxic stress of the clone MMH/GH5 was then compared with the one obtained in single transgenic HPS70/hGH primary hepatocytes (PHGH). A representative sample of the cell line derived from said clone MMH/GH5 was deposited in accordance with and for the purposes of the Treaty of Budapest on the international recognition of deposit of micro-organisms for the purposes of the patents procedure with the AID “Centro di Biotecnologie Avanzate (CBA), Interlab Cell Line Collection (ICLC)” Servizio Biotecnologie, Largo R. Benzi, 10, 16132 Genova, Italy, on Jul. 30, 2002, where it was given identification number PD 02007.
as §1, §2

Structure (SMILES): [Cl][Cd][Cl] [CdCl2]
- hGH secreted, 5 h (MMH/GH cells, Clone 2; 5x10^-5 M (As2/Cd2)): 0
- hGH secreted, 5 + 24 h (MMH/GH cells, Clone 2; 5x10^-5 M (As2/Cd2)): 4
- hGH secreted, 5 h (MMH/GH cells, Clone 2; 10^-4 M (As3/Cd3)): 0
- hGH secreted, 5 + 24 h (MMH/GH cells, Clone 2; 10^-4 M (As3/Cd3)): 0
- hGH secreted, 5 h (MMH/GH cells, Clone 2; 10^-5 M (As1/Cd1)): 0
- hGH secreted, 5 + 24 h (MMH/GH cells, Clone 2; 10^-5 M (As1/Cd1)): 0
- hGH secreted, 5 h (MMH/GH cells, Clone 9; 5x10^-5 M (As2/Cd2)): 200
- hGH secreted, 5 + 24 h (MMH/GH cells, Clone 9; 5x10^-5 M (As2/Cd2)): 0
- hGH secreted, 5 h (MMH/GH cells, Clone 9; 10^-4 M (As3/Cd3)): 5
- hGH secreted, 5 + 24 h (MMH/GH cells, Clone 9; 10^-4 M (As3/Cd3)): 0
- hGH secreted, 5 h (MMH/GH cells, Clone 9; 10^-5 M (As1/Cd1)): 0
- hGH secreted, 5 + 24 h (MMH/GH cells, Clone 9; 10^-5 M (As1/Cd1)): 0
- hGH secreted, 5 h (MMH/GH cells, Clone 11; 5x10^-5 M (As2/Cd2)): 0
- hGH secreted, 5 + 24 h (MMH/GH cells, Clone 11; 5x10^-5 M (As2/Cd2)): 0
- hGH secreted, 5 h (MMH/GH cells, Clone 11; 10^-4 M (As3/Cd3)): 0
- hGH secreted, 5 + 24 h (MMH/GH cells, Clone 11; 10^-4 M (As3/Cd3)): 0
- hGH secreted, 5 h (MMH/GH cells, Clone 11; 10^-5 M (As1/Cd1)): 40
- hGH secreted, 5 + 24 h (MMH/GH cells, Clone 11; 10^-5 M (As1/Cd1)): 0
- survival of the PHGHs [1]: practically nil
- hGH secreted, 5 h (MMH/GH cells, Clone 4; 5x10^-5 M (As2/Cd2)): 0
- hGH secreted, 5 + 24 h (MMH/GH cells, Clone 4; 5x10^-5 M (As2/Cd2)): 0
- hGH secreted, 5 h (MMH/GH cells, Clone 4; 10^-4 M (As3/Cd3)): 0
- hGH secreted, 5 + 24 h (MMH/GH cells, Clone 4; 10^-4 M (As3/Cd3)): 0
- hGH secreted, 5 h (MMH/GH cells, Clone 4; 10^-5 M (As1/Cd1)): 0
- hGH secreted, 5 + 24 h (MMH/GH cells, Clone 4; 10^-5 M (As1/Cd1)): 0
- hGH secreted, 5 h (MMH/GH5 cells (Clone 5); 5x10^-5 M (As2/Cd2)): 50
- hGH secreted, 5 + 24 h (MMH/GH5 cells (Clone 5); 5x10^-5 M (As2/Cd2)): 40
- hGH secreted, 5 h (MMH/GH5 cells (Clone 5); 10^-4 M (As3/Cd3)): 90
- hGH secreted, 5 + 24 h (MMH/GH5 cells (Clone 5); 10^-4 M (As3/Cd3)): 20
- hGH secreted, 5 h (MMH/GH5 cells (Clone 5); 10^-5 M (As1/Cd1)): 25
- hGH secreted, 5 + 24 h (MMH/GH5 cells (Clone 5); 10^-5 M (As1/Cd1)): 25
- release of hGH in the culture medium in relation to concentration of the toxicant (MMH/GH5 cells (Clone 5); MMH/GH5, 10^-5, 5x10^-5, 10^-4 M, 5 h, FIG. 1 graph A): directly proportional to the concentration of the toxicant
- hGH secreted, 5 h (MMH/GH cells, Clone 10; 5x10^-5 M (As2/Cd2)): 0
- hGH secreted, 5 + 24 h (MMH/GH cells, Clone 10; 5x10^-5 M (As2/Cd2)): 12
- hGH secreted, 5 h (MMH/GH cells, Clone 10; 10^-4 M (As3/Cd3)): 0
- hGH secreted, 5 + 24 h (MMH/GH cells, Clone 10; 10^-4 M (As3/Cd3)): 7
- hGH secreted, 5 h (MMH/GH cells, Clone 10; 10^-5 M (As1/Cd1)): 0
- hGH secreted, 5 + 24 h (MMH/GH cells, Clone 10; 10^-5 M (As1/Cd1)): 25
- release of hGH in the culture medium in relation to concentration of the toxicant [2]: inversely proportional
